# Experimental data: the supplement of paper PMC10307832
# Assays:
# Assay in all cases: relative viability (nuclei count vs DMSO), 5 days (fraction); higher = more cells survive
# [1] = compound: CC(O)(CS(=O)(=O)c1ccc(F)cc1)C(=O)Nc1ccc(C#N)c(C(F)(F)F)c1 [Bicalutamide] + Cc1nc(Nc2ncc(C(=O)Nc3c(C)cccc3Cl)s2)cc(N2CCN(CCO)CC2)n1 [Dasatinib] (partner 0.075 µM)
# How it was run: (§1)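 Cells from lung cancer lines were seeded into 1536-well plates and, one day later, dosed by pin tool. Treatments were either a single drug or a fixed dose of an anchor drug with five library-drug doses (not always all listed) in √10 steps. After 5 days, nuclei were stained in a one-step fixation (final 0.05% Triton X-100, 1% formaldehyde, 1 ug/ml Hoechst) and counted on 4× images, and relative viability is the treated-to-vehicle nuclei ratio, as the median of duplicate plates.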
# [2] = compound: C(C(=O)C(=O)O)Br [Bromopyruvate] + C[C@@H](Oc1cc(-c2cnn(C3CCNCC3)c2)cnc1N)c1c(Cl)ccc(F)c1Cl [Crizotinib] (partner 1 µM)
# How it was run: as §1
# [3] = compound: CC(O)(CS(=O)(=O)c1ccc(F)cc1)C(=O)Nc1ccc(C#N)c(C(F)(F)F)c1 [Bicalutamide] + CCNC(=O)c1noc(-c2cc(C(C)C)c(O)cc2O)c1-c1ccc(CN2CCOCC2)cc1 [Luminespib] (partner 0.01 µM)
# How it was run: as §1
# [4] = compound: CC(O)(CS(=O)(=O)c1ccc(F)cc1)C(=O)Nc1ccc(C#N)c(C(F)(F)F)c1 [Bicalutamide] + CC1(C)CCC(c2ccc(Cl)cc2)=C(CN2CCN(c3ccc(C(=O)NS(=O)(=O)c4ccc(N[C@H](CCN5CCOCC5)CSc5ccccc5)c(S(=O)(=O)C(F)(F)F)c4)cc3)CC2)C1 [Navitoclax] (partner 0.5 µM)
# How it was run: as §1
Cell Line,relative viability ([1]; first compound 0.08 µM),relative viability ([1]; first compound 0.253 µM),relative viability ([1]; first compound 0.8 µM),relative viability ([1]; first compound 2.53 µM),relative viability ([2]; first compound 1 µM),relative viability ([2]; first compound 3.162 µM),relative viability ([2]; first compound 10 µM),relative viability ([2]; first compound 31.62 µM),relative viability ([2]; first compound 100 µM),relative viability ([3]; first compound 0.08 µM),relative viability ([3]; first compound 0.253 µM),relative viability ([3]; first compound 0.8 µM),relative viability ([3]; first compound 2.53 µM),relative viability ([4]; first compound 0.08 µM),relative viability ([4]; first compound 0.253 µM),relative viability ([4]; first compound 0.8 µM),relative viability ([4]; first compound 2.53 µM)
201T,0.575,0.566,0.581,0.57,1.06,1.03,1.02,1.02,1.08,1.06,1.03,1.02,1.1,1.18,1.24,1.18,1.22
A549,–,–,–,–,0.731,0.806,0.858,0.754,0.736,–,–,–,–,1.33,1.16,1.36,1.08
A-427,0.643,0.631,0.791,0.607,0.878,0.873,0.82,0.741,0.793,1.02,0.761,1,0.763,0.986,1.03,0.98,0.927
ABC-1,0.658,0.476,0.725,0.475,1.47,1.13,–,1.05,0.636,0.558,0.296,0.749,0.596,–,–,–,–
BEN,0.355,0.316,0.393,0.38,0.875,0.935,0.99,0.753,1.01,0.416,0.344,0.541,0.39,0.0525,0.0535,0.0851,0.0653
CAL-12T,0.492,0.325,0.445,0.256,0.663,0.663,0.743,0.48,0.505,0.707,0.38,0.712,0.454,1.22,1.39,1.35,1.09
COR-L23,0.628,0.513,0.407,0.476,0.564,0.597,0.717,0.713,0.336,0.718,0.699,0.764,0.649,1.17,1.02,1.11,0.898
COR-L 105,0.325,0.257,0.325,0.285,0.716,1.09,0.739,0.583,0.439,1.04,0.721,0.911,0.652,0.694,0.696,0.726,0.703
Calu-6,–,–,–,–,0.659,0.843,0.938,0.79,0.546,–,–,–,–,0.895,0.827,0.842,0.705
ChaGo-K-1,0.613,0.557,0.561,0.542,1.09,1.14,1.17,1.1,1.17,0.704,0.717,0.513,0.622,0.983,1.02,1.17,0.793
EBC-1,–,–,–,–,0.235,0.218,0.187,0.187,0.196,–,–,–,–,0.477,0.491,0.372,0.296
EKVX,0.619,0.491,0.662,0.66,0.917,1.1,1.08,1.03,0.996,0.94,0.871,0.964,0.892,1.02,1.01,1.15,0.894
EMC-BAC-2,0.347,0.287,0.33,0.298,0.611,0.723,0.798,0.788,0.756,1.13,1.14,1.17,1.06,1.19,1.11,1.21,1.16
EPLC-272H,0.375,0.336,0.454,0.321,0.773,0.996,0.999,0.92,0.911,0.178,0.293,1.17,0.154,1.33,1.03,1.23,0.956
H3255,0.491,0.39,–,0.359,0.929,0.987,0.915,0.803,0.973,0.827,0.857,–,0.813,0.524,0.489,0.631,0.4
HARA,0.273,0.248,0.314,0.265,1.05,1.03,0.983,0.991,1.06,0.987,0.721,0.678,0.847,1.15,1.15,1.11,1.13
HCC-15,0.666,0.568,0.653,0.609,0.823,0.898,0.793,0.817,0.905,0.445,0.294,0.57,0.62,0.757,0.685,0.761,0.712
HCC-44,–,–,–,–,0.787,0.724,0.735,0.862,0.884,0.907,0.97,1.44,1.15,0.921,0.949,0.924,0.982
HCC-78,0.363,0.297,0.483,0.375,0.368,0.339,0.37,0.349,0.347,–,–,–,–,0.825,0.862,0.893,0.687
HCC-366,0.556,0.481,0.749,0.5,0.569,0.54,0.947,0.548,0.474,–,–,–,–,1.08,1.03,1.17,1.02
HCC-827,0.328,0.19,0.315,0.293,0.939,0.919,0.931,0.999,0.964,0.704,0.676,1.35,0.668,1.04,0.971,1.02,1.02
